Experimental data reported in ChEMBL document CHEMBL1201862, “PubChem BioAssay data set” (2004).
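Interpolation was linear, between the two tested concentrations surrounding the appropriate level; five concentrations were tested over 48 hours in 96-well plates. GI50 = concentration required for 50% inhibition of growth.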 Activity calls are given as the source filed them. No stated cut-off is given here; in the data, active = GI50 up to about 1.1 µM and inactive = higher.

How the values were obtained:
Experiment in all cases: DTP human tumour cell line panel, 48 h
IGROV-1 = test system: IGROV-1
OVCAR-4 = test system: OVCAR-4
HCT-116 = test system: HCT-116
SK-OV-3 = test system: SK-OV-3
BT-549 = test system: BT-549
Malme-3M = test system: Malme-3M
NCI-H23 = test system: NCI-H23
MDA-MB-231 = test system: MDA-MB-231
A549 = test system: A549
KM12 = test system: KM12
T47D = test system: T47D
SNB-75 = test system: SNB-75
OVCAR-8 = test system: OVCAR-8
SF-295 = test system: SF-295
SR = test system: SR
HL-60 = test system: HL-60
786-0 = test system: 786-0
HOP-62 = test system: HOP-62
COLO 205 = test system: COLO 205
SK-MEL-28 = test system: SK-MEL-28
HCC 2998 = test system: HCC 2998
SK-MEL-5 = test system: SK-MEL-5
RPMI-8226 = test system: RPMI-8226
HT-29 = test system: HT-29
MOLT-4 = test system: MOLT-4
NCI-H226 = test system: NCI-H226
Hs-578T = test system: Hs-578T
SW-620 = test system: SW-620
K562 = test system: K562
HOP-92 = test system: HOP-92
SNB-19 = test system: SNB-19
DU-145 = test system: DU-145
PC-3 = test system: PC-3
UO-31 = test system: UO-31
MCF7 = test system: MCF7
MDA-N = test system: MDA-N
SF-539 = test system: SF-539
UACC-62 = test system: UACC-62
TK-10 = test system: TK-10
M14 = test system: M14
OVCAR-3 = test system: OVCAR-3
OVCAR-5 = test system: OVCAR-5
SN12C = test system: SN12C
EKVX = test system: EKVX
ACHN = test system: ACHN
SK-MEL-2 = test system: SK-MEL-2
MDA-MB-435 = test system: MDA-MB-435
SF-268 = test system: SF-268
HCT-15 = test system: HCT-15
LOX IMVI = test system: LOX IMVI
U-251 = test system: U-251
NCI-H522 = test system: NCI-H522
NCI/ADR-RES = test system: NCI/ADR-RES
CCRF-CEM = test system: CCRF-CEM
RXF 393 = test system: RXF 393
UACC-257 = test system: UACC-257
NCI-H460 = test system: NCI-H460
CAKI-1 = test system: CAKI-1
A498 = test system: A498

Measured: GI50

c1ccc2c(c1)ncn2C1CCCCO1 (stereo not given)
> 100 µM: HCT-15
inactive: IGROV-1 > 100 µM | OVCAR-4 > 100 µM | HCT-116 > 100 µM | SK-OV-3 > 100 µM | BT-549 > 100 µM | Malme-3M > 100 µM | NCI-H23 > 100 µM | MDA-MB-231 > 100 µM | A549 > 100 µM | KM12 > 100 µM | T47D > 100 µM | SNB-75 > 100 µM | OVCAR-8 > 100 µM | SF-295 > 100 µM | SR > 100 µM | HL-60 > 100 µM | 786-0 > 100 µM | HOP-62 > 100 µM | COLO 205 > 100 µM | SK-MEL-28 > 100 µM | HCC 2998 > 100 µM | SK-MEL-5 > 100 µM | RPMI-8226 > 100 µM | HT-29 > 100 µM | MOLT-4 > 100 µM | NCI-H226 > 100 µM | Hs-578T > 100 µM | SW-620 > 100 µM | K562 > 100 µM | HOP-92 > 100 µM | SNB-19 > 100 µM | DU-145 > 100 µM | PC-3 > 100 µM | UO-31 > 100 µM | MCF7 > 100 µM | MDA-N > 100 µM | SF-539 > 100 µM | UACC-62 > 100 µM | TK-10 > 100 µM | M14 > 100 µM | OVCAR-3 > 100 µM | OVCAR-5 > 100 µM | SN12C > 100 µM | EKVX > 100 µM | ACHN > 100 µM | SK-MEL-2 > 100 µM | MDA-MB-435 > 100 µM | SF-268 > 100 µM | LOX IMVI > 100 µM | U-251 > 100 µM | NCI-H522 > 100 µM | NCI/ADR-RES > 100 µM | CCRF-CEM > 100 µM | RXF 393 > 100 µM | UACC-257 > 100 µM

Cc1c2c(n(CC(c3ccccc3)c3ccccc3)c1C)NN=C(C#N)S2(=O)=O
inactive: IGROV-1 > 100 µM | OVCAR-4 > 100 µM | HCT-116 74 µM | SK-OV-3 > 100 µM | BT-549 > 100 µM | NCI-H23 > 100 µM | MDA-MB-231 33.9 µM | NCI-H460 > 100 µM | A549 > 100 µM | KM12 66.2 µM | T47D > 100 µM | SNB-75 98.4 µM | OVCAR-8 > 100 µM | SF-295 > 100 µM | SR 35.2 µM | 786-0 > 100 µM | HOP-62 > 100 µM | COLO 205 > 100 µM | SK-MEL-28 > 100 µM | HCC 2998 > 100 µM | SK-MEL-5 > 100 µM | RPMI-8226 > 100 µM | HT-29 > 100 µM | MOLT-4 37.7 µM | NCI-H226 > 100 µM | Hs-578T 43.1 µM | SW-620 > 100 µM | HOP-92 > 100 µM | SNB-19 > 100 µM | DU-145 > 100 µM | PC-3 > 100 µM | UO-31 > 100 µM | MCF7 > 100 µM | MDA-N > 100 µM | SF-539 > 100 µM | UACC-62 97.7 µM | TK-10 > 100 µM | M14 > 100 µM | OVCAR-3 > 100 µM | OVCAR-5 > 100 µM | CAKI-1 > 100 µM | SN12C > 100 µM | EKVX > 100 µM | ACHN > 100 µM | SK-MEL-2 > 100 µM | MDA-MB-435 > 100 µM | SF-268 64.1 µM | LOX IMVI > 100 µM | U-251 > 100 µM | A498 > 100 µM | NCI-H522 45.6 µM | NCI/ADR-RES > 100 µM | UACC-257 > 100 µM
> 100 µM: HCT-15
